Calls of active or inactive are those of the source. No cut-off for these calls is given here.

Common to all, as to type: functional, cell-based
Test [1] deals with HT-29. Nature of the test: Antiproliferative activity against human HT-29 cells after 24 hrs by MTT assay.
For a further test, the system named is CAL-27. Nature of the test: Antiproliferative activity against human CAL27 cells after 72 hrs by MTT assay.
Another test has as its system MDA-MB-231. Nature of the test: Antiproliferative activity against human MDA-MB-231 cells after 72 hrs by MTT assay.
Test [2] deals with HeLa. Kind of test: Antiproliferative activity against human HeLa cells after 72 hrs by MTT assay.
Test [3] relates to HT-29. Kind of test: Antiproliferative activity against human HT-29 cells after 72 hrs by MTT assay.
The next test concerns SK-BR-3. Nature of the test: Antiproliferative activity against human SKBR3 cells after 72 hrs by MTT assay.
In a further test the test system is A549. Kind of test: Antiproliferative activity against human A549 cells after 72 hrs by MTT assay.
For test [4], the system named is HeLa. Nature of the test: Antiproliferative activity against human HeLa cells after 24 hrs by MTT assay.

Turning to `O=C1N[C@@H](Cc2c(-c3cc(C(F)(F)F)cc(C(F)(F)F)c3)[nH]c3ccccc23)C(=O)N2CCC[C@@H]12`, the result with HT-29 [1] was Active.

With `O=C1N[C@@H](Cc2c(-c3ccc(C(F)(F)F)cc3)[nH]c3ccccc23)C(=O)N2CCC[C@@H]12`, the outcome in the test on CAL-27, in the test with MDA-MB-231, in the test with HT-29 [3], with SK-BR-3 and in the test with A549 was Active. The IC50 in the test on HeLa [2] is 26 µM.

`O=C1N[C@@H](Cc2c(-c3ccccc3C(F)(F)F)[nH]c3ccccc23)C(=O)N2CCC[C@@H]12`: the result in the test with HT-29 [1] and with HeLa [4] was Active.

`O=C1N[C@@H](Cc2c(-c3ccc(Cl)cc3)[nH]c3ccccc23)C(=O)N2CCC[C@@H]12` displayed a 50% inhibitory concentration (IC50) in the test on HeLa [2] of 52 µM. The result in the test with HT-29 [3], with SK-BR-3 and in the test on A549 was Active.

On to `COC(=O)c1ccc(-c2[nH]c3ccccc3c2C[C@@H]2NC(=O)[C@@H]3CCCN3C2=O)cc1`, for which the outcome in the test with HT-29 [3], with SK-BR-3 and in the test on A549 was Active.

With `COc1ccc(-c2[nH]c3ccccc3c2C[C@@H]2NC(=O)[C@@H]3CCCN3C2=O)cc1`, the result in the test with HT-29 [3], with SK-BR-3 and with A549 was Active.

As for `COc1ccccc1-c1[nH]c2ccccc2c1C[C@@H]1NC(=O)[C@@H]2CCCN2C1=O`, the outcome in the test on HT-29 [1] and in the test with HeLa [4] was Active.

Regarding `Cc1ccc(-c2[nH]c3ccccc3c2C[C@@H]2NC(=O)[C@@H]3CCCN3C2=O)cc1`, the outcome with HT-29 [3], with SK-BR-3 and in the test on A549 was Active.

As for `O=C1N[C@@H](Cc2c[nH]c3ccccc23)C(=O)N2CCC[C@@H]12` [BREVIANAMIDE F], the IC50 in the test on HeLa [2] is more than 200 µM.

For the compound `O=C1N[C@@H](Cc2c(-c3ccccc3Cl)[nH]c3ccccc23)C(=O)N2CCC[C@@H]12`, the result with HT-29 [1] and in the test with HeLa [4] was Active.

With `O=C1N[C@H](Cc2c(-c3ccc(C(F)(F)F)cc3)[nH]c3ccccc23)C(=O)N2CCC[C@H]12`, the result in the test with CAL-27, in the test with MDA-MB-231 and in the test with A549 was Active.

The record behind these values is ChEMBL document CHEMBL3132859, “Synthesis and biological evaluation of a post-synthetically modified Trp-based diketopiperazine” (Medchemcomm, 2013).
